The NIST ThermoML archive (doi:10.1021/je060146z)
Numbers after ± are expanded uncertainties.

Settings: Crystal

Row | SMILES | Normal melting temperature [°C]
1 | CCCCCCCCCC(=O)O [decanoic acid] | 31.27 ± 1.2
2 | CCCCCCCCCCCCCC(=O)O [tetradecanoic acid] | 54.33 ± 1.2

Results, then the molecule that gave them:

Row | Normal melting temperature [°C] | SMILES
3 | 43.79 ± 1.2 | CCCCCCCCCCCC(=O)O [dodecanoic acid]
4 | 62.29 ± 1.2 | CCCCCCCCCCCCCCCC(=O)O [hexadecanoic acid]
5 | 68.76 ± 1.2 | CCCCCCCCCCCCCCCCCC(=O)O [octadecanoic acid]
